This is an account of results in patent US6103888A, “Mammalian cationic proteins having lipopolysaccharide binding and anti-coagulant activity” (priority 1999, dated 2000).

Assay [1] relates to Salmonella minnesota ReLPS sensitized sheep erythrocytes. Nature of the assay: LPS hemagglutination assay (MAC). In kind it is binding. On the procedure:
(§1) For hemagglutination assays, erythrocytes were sensitized with LPS as follows. One ml of 1% erythrocyte suspension (human 0 type, C3H/HeN mouse or sheep) was mixed with 0.2 ml of LPS solution and incubated at 37° C. for 30 min, followed by washing with phosphate buffered saline (PBS), and then the concentration of suspension was adjusted to 1.0%. In the case of S-LPS, the solution was heated at 100° C. for 1 hour before sensitization of erythrocytes. […] Activity of CAP was expressed as a minimum agglutinating concentration (MAC) of CAP. According to the method of Kirikae et al. (1986) Microbiol. Immunol. 30:269-274, 50 μl of 2-fold serial dilution of Re-LPS was added to 50 μl of 1.0% rabbit erythrocyte suspension, and incubated at 37° C. for 3 hour. Minimum agglutinating concentration of Re-LPS was expressed as 1 HA unit.

In another assay the test system is E. coli 0111:B4 LPS. The experiment in a line: Inhibition of RNIP-mediated hemagglutination by LPS preparation. In kind it is binding. Particulars: Peptide #36-1 16 μg/ml, RNIP (#197) 25 μg/ml preincubated with LPS 37° 30 minutes. On the procedure:
as §1
(§2) Another series of experiments was performed to determine if the #36-1 and #197 (RNIP) peptides were capable of binding to LPS from various species of Gram-negative bacteria. For these experiments, sheep red blood cells were sensitized with Salmonella minnesota Re-LPS. Peptides #36-1 and #197 (RNIP) were preincubated with various preparations of LPS. Both peptides bind to a diverse group of lipopolysaccharides.
(§3) +Peptide #361 (16 μg/ml) and RNIP (#197) (25 μg/ml) were
(§4) preincubated with each LPS preparation at 37° for 30 minutes, and
(§5) each reaction mixture was added to sheep erythrocytes sensitized with […]

The subject of another assay is E. coli 0127:B8 LPS. The description is as above. In kind it is binding. Particulars: Peptide #36-1 16 μg/ml, RNIP (#197) 25 μg/ml preincubated with LPS 37° 30 minutes. The method, then: as §1, §2, §3, §4, §5
Another assay concerns E. coli 055:B5 LPS. The assay is described as above. To be noted: Peptide #36-1 16 μg/ml, RNIP (#197) 25 μg/ml preincubated with LPS 37° 30 minutes. In kind it is binding. The method, then: as §1, §2, §3, §4, §5
Another assay has as its system E. coli J5 LPS. The assay is described as above. In kind it is binding. To be noted: Peptide #36-1 16 μg/ml, RNIP (#197) 25 μg/ml preincubated with LPS 37° 30 minutes. On the procedure: as §1, §2, §3, §4, §5
The subject of assay [2] is Klebsiella pneumoniae LPS. Described as above. Particulars: Peptide #36-1 16 μg/ml, RNIP (#197) 25 μg/ml preincubated with LPS 37° 30 minutes. In kind it is binding. The method, then: as §1, §2, §3, §4, §5
Assay [3] concerns Pseudomonas aeruginosa F-D Type I LPS. The description is as above. In kind it is binding. To be noted: Peptide #36-1 16 μg/ml, RNIP (#197) 25 μg/ml preincubated with LPS 37° 30 minutes. On the procedure:
as §1, §2, §3, §4, §5

Assay [4] deals with Salmonella minnesota R595 LPS. The assay is described as above. In kind it is binding. Particulars: Peptide #36-1 16 μg/ml, RNIP (#197) 25 μg/ml preincubated with LPS 37° 30 minutes. The method, then: as §1, §2, §3, §4, §5
The subject of a further assay is human mononuclear cells. The experiment in a line: LPS-induced tissue factor by human mononuclear cells (clotting assay). In kind it is cell-based. On the procedure: Human mononuclear cells were separated from citrated peripheral blood by centrifugation over Sodium-metrizoate-Ficoll (lymphocyte Separation Medium, Japan Antibody Institute, Gumma). The resulting mixed mononuclear cell suspension was washed 3 times with RPMI 1640 media. Cell suspension (1×10^6 /ml) was stimulated with LPS for 16 to 18 hr.
Veronal buffered saline (VBS) was added to the cell pellet, lysed by 3 cycles of freeze/thaw and sonicated for 10 sec with a hand-held sonicator microbe (Handy Sonic, model UR-20P, Tomy Seiko LTD, Tokyo). Tissue factor activity was tested in modified unactivated partial thromboplastin time (7). One tenth ml of cell lysate (1×10^6 /ml) was preincubated with mouse plasma at 37° C. for 3 min. Then 0.1 ml of 25 mM-CaCl2 which contains phospholipid was added to the mixture and clotting time was measured using a fibrometer (Bio Quest Division, Becton Dickinson, Cokeysville, USA). A standard curve obtained from serial two-fold dilutions of rabbit brain thromboplastic (Simplastin, Ono Pharmaceutical Co.) was used to transpose tissue factor activity into arbitrary tissue factor units (1 μg/ml) suspension of rabbit brain was assigned a value of 1,000 units).
The mean tissue factor units+standard error was determined from three to four samples. Student's t test for unpair data was used to determine the statistically significant differences. A two-tailed P value of <0.05 was considered significant. […]

The subject of assay [5] is thioglycollate-stimulated murine peritoneal macrophages. Nature of the assay: LPS-induced tissue factor generation by macrophages (clotting assay). In kind it is cell-based. The method, then: Tissue factor assay. Salmonella minnesota smooth LPS was incubated with each peptide (1 μg/ml) for 5 min., then the mixture was added to peritoneal murine macrophages obtained 4 days after thioglycollate stimulation. Cells were cultured for 6 hours prior to assay of tissue factor by clotting assay.
Various concentrations of Salmonella minnesota smooth LPS were incubated with each peptide (197 (RNIP), 36-1, 32-1, and 50-2) at 37° C. for 5 minutes prior to mixing with thioglycollate-stimulated murine peritoneal macrophages. Production of tissue factor after 6 hr. was measured by clotting assay. […] In the absence of LPS no tissue factor is synthesized by these cells.

A further assay deals with Human plasma. The experiment in a line: Partial thromboplastin time (PTT). In kind it is biochemical. Particulars: dose dependent. On the procedure:
Partial thromboplastin time (PTT). Human plasma (100 μl) was incubated with each peptide (100 μl) at 37° C. for 3 min., then 100 μl of CaCl2 containing phospholipid was added and clotting time was measured.

The target of another assay is T1, factor Xa (Homo sapiens, UniProt P00742).
T1 construct: purchased Sigma Chemical Co., St. Louis, Mo
The experiment in a line: Direct Xa inhibition using Xa substrate S2222. To be noted: concentrations over 10 μg/ml. In kind it is biochemical. The source says:
Clotting method: Human plasma (Ortho plasma control, Ortho Diagnostic Co.). ATPP reagent(Organo-technika, Tokyo, Japan). Standard tissue factor, rabbit brain thromboplastin (Simplastin, ONO Pharmaceutical, Tokyo, Japan). Purified human factor VII, factor X, factor Xa (Sigma Chemical Co., St. Louis, Mo.). Russell Viper venom (RVV) and Echis Carinatus venom (ECV, Sigma Co.).
Synthetic chromogenic substrate method: Substrate for factor Xa, S2222 (Kabi, Bz-Ile-Glu-Arg-pNA) was used. Substrate for factor II (prothrombin), Boc-Val-Pro-Arg-pNA (Sigma Chemical Co.) was used.

In a further assay the target is prothrombin (factor II) (Homo sapiens, UniProt P00734). Nature of the assay: Prothrombin activation by Echis Carinatus venom (ECV). In kind it is biochemical. On the procedure: Prothrombin activation by Echis Carinatus venom (ECV). A reaction mixture of prothrombin (factor II) (0.1 unit/ml, 200 μl), ECV (1 unit/ml, 200 μl), various concentration of peptide (70 μl), 50 μl of 25 mM-CaCl2 and 180 μl of Tris buffer was incubated at 37° C. for 10 min. To 300 μl of the reaction mixture, 60 μl of 4 mM-thrombin substrate and 240 μl of buffer was added and further incubated for 15 min.

A further assay deals with E. coli O9:K39 K+ strain. The experiment in a line: Antibacterial CFU assay.
Setting [6] is: LPS 0.1 μg/ml, peptide HA units: RNIP 2, CAP-18 1, HP-1 4, HP-2 2.

Where “and” joins values, the source holds several entries; their conditions need not be identical. Identical values can stand only once.

T1 sequence (P00742 235-488 limits assumed): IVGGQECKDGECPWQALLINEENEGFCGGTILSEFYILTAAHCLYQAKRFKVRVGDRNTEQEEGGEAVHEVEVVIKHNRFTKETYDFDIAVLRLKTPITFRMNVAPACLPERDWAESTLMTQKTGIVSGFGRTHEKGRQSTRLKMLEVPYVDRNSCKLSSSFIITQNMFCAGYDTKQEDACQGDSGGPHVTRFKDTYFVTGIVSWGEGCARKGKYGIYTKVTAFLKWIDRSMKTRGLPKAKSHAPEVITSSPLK
T1 sequence (P00742 41-179 limits assumed): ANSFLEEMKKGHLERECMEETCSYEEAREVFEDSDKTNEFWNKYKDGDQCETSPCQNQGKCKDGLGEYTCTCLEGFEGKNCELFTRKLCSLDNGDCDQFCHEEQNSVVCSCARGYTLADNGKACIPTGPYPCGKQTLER

For orientation: IC50 means the midpoint of a concentration-inhibition curve. Consider “RNIP: rabbit reactive nitrogen inhibitory protein, amino acids 135-171 of SEQ ID NO:4; purified from granulocytes (Tables 1-3) or synthetic (#197) (GLRKRLRKFRNKIKEKLKKIGQKIQGLLPKLAPRTDY)”, for which the “Hemagglutination [MAC], minimum agglutinating concentration” value in assay [1] is 7.9 µg/mL. Further, the “MIC, minimal inhibitory concentration of LPS” value against E. coli 0111:B4 LPS is 31.3 µg/mL; against E. coli 0127:B8 LPS, 62.5 µg/mL; in the assay on E. coli 055:B5 LPS it was 62.5 µg/mL; against E. coli J5 LPS it was 15.6 µg/mL; in assay [2], 62.5 µg/mL; in assay [3] it was 15.6 µg/mL. Further, in [4], the “MIC, minimal inhibitory concentration of LPS” value amounted to 62.5 µg/mL. In the assay with human mononuclear cells (setting [6]), the “Inhibition (%)” value is 51% and 41%. In addition, the “Tissue Factor Units, value in parentheses (ratio to unstimulated control)” value in the assay on human mononuclear cells (setting [6]) is 9.0; in the assay on human mononuclear cells (no LPS, peptide alone) it was 1.3. Moreover, in the assay with human mononuclear cells (LPS 0.1 μg/ml, relative to LPS alone (100), 960 min), the “Δ Units (%)” value was 49% and 59%. For the same substance, in the assay with human mononuclear cells (no LPS, peptide alone), the “Tissue factor units” value is listed as 636 ± 141 Units ×10^3 /3.6 × 10^4 cells. Also, the “Δ Units” value in the assay on human mononuclear cells (no LPS, peptide alone) amounted to 144 Units. For the same substance, the “inhibition of LPS-induced tissue factor generation, peptide added after LPS” value in [5] (added as late as 3 hours after the LPS stimulus) is “Significant inhibition”. In addition, the “inhibition of LPS induced tissue factor (in words)” value in [5] (peptides 1 μg/ml incubated with S. minnesota smooth LPS 5 minutes, 6 hr) was “inhibition”. Further, in the assay with Human plasma, the “inhibition of the partial thromboplastin time (PTT), in words” value is “inhibited”. The “direct Xa inhibition (in words)” value in the assay with factor Xa is listed as “No evidence of direct Xa inhibition”. Also, in the assay with prothrombin (factor II), the “inhibition of Echis carinatus venom activation of purified factor II to IIa (in words)” value is listed as “inhibited”. Further, the “IC50, anti-bacterial activity” value in the assay with E. coli O9:K39 K+ strain was determined as 0.14 µg/mL. For the same substance, the IC50 in the assay with E. coli O9:K39 K+ strain (read-out: IC50, anti-bacterial activity) turned out to be 20 nM.
